# Patent publication US20180016593A1, “HERBICIDE-RESISTANT SUNFLOWER PLANTS, POLYNUCLEOTIDES ENCODING HERBICIDE-RESISTANT ACETOHYDROXYACID SYNTHASE LARGE SUBUNIT PROTEINS, AND METHODS OF USE” (priority 2005, published 2018)
# Where “and” joins values, the source holds several entries; their conditions need not be identical. Equal values may be shown once. Read-outs that look alike come from different tables or passages of the source.
# Tested on: sunflower lines carrying the A122T mutation
# Type: in vivo, Helianthus annuus
# Conditions: 14 DAT; for root dry weight, Dif with A122T-A205V / biomass accumulation, Dif A122T-A205V / plant height, Dif A122T-A205V: A122T mean minus A205V mean; for biomass accumulation, Dif with Control / plant height, Dif with Control / root dry weight, Dif with Control: A122T mean; for Phytotoxicity Index, Dif A205V-A122T: A205V mean minus A122T mean; for biomass accumulation, Mean / plant height, Mean / root dry weight, Mean: six A122T genotypes; for Phytotoxicity Index, Mean: three A122T genotypes
# Protocol: A greenhouse study was conducted to quantify and contrast the imazapir sensivity of the mutants A122T and A205V in different genetic backgrounds at the whole plant level in sunflower. Seeds of the different sunflower lines that were used in this study were obtained under field conditions.
# Seeds were sown in Petri dishes and, after germination, plantlets were transplanted to pots of 10 cm of diameter in a potting media consisting of equal parts of vermiculite, soil and sand. Plants were grown in a greenhouse under natural light conditions supplemented with 400 W sodium halide lamps to provide a 16 hrs daylength. Day/night temperatures were 25 and 20° C., respectively. At the V2 stage 10 plants of each genotype were randomly assigned to each treatment consisting of […] imazapir doses (0, 40, 80, 160, 240, 320, 400 and 480 g ai/ha), and a zero-time biomass determination. Experiment was arranged as a randomized block design with a full factorial (sunflower line×treatment) arrangement of treatments and 10 replications.
# On the day of herbicide application ten plants of each genotype were cut at the cotyledonal node and dried at 60° C. for 48 hrs zero-time for dried weight determination.
# Height was determined as the distance between the cotyledonal node and the apex of each plant. For root biomass determination, each plant was taken from the pot and the potting media was washed out from the roots. Above ground biomass data from each line were converted to biomass accumulation after application by subtracting the appropriate average zero-time biomass from each sample. Dry biomass data were converted to percentages of the untreated control plants within each line to allow direct comparisons between groups. […]
structure (smiles),measurement,setting,value
CC(C)C1(C)N=C(c2ncccc2C(=O)O)NC1=O (stereo not drawn) [imazapyr],"root dry weight, Dif with A122T-A205V",4x (320 g ai/ha),50.3 % of untreated plots
same,"biomass accumulation, Dif A122T-A205V",5x (400 g ai/ha),46.9 % of untreated plots
same,"plant height, Dif A122T-A205V",5x (400 g ai/ha),57.8 % of untreated plots
same,"root dry weight, Dif with A122T-A205V",5x (400 g ai/ha),47.9 % of untreated plots
same,"biomass accumulation, Dif A122T-A205V",6x (480 g ai/ha),44.6 % of untreated plots
same,"plant height, Dif A122T-A205V",6x (480 g ai/ha),54.0 % of untreated plots
same,"root dry weight, Dif with A122T-A205V",6x (480 g ai/ha),37.3 % of untreated plots
same,"biomass accumulation, Dif with Control",0.5x (40 g ai/ha),1.1 % of untreated plots
same,"plant height, Dif with Control",0.5x (40 g ai/ha),0.6 % of untreated plots
same,"root dry weight, Dif with Control",0.5x (40 g ai/ha),0.1 % of untreated plots
same,"biomass accumulation, Dif with Control",1x (80 g ai/ha),3.2 % of untreated plots
same,"plant height, Dif with Control",1x (80 g ai/ha),1.4 % of untreated plots
same,"root dry weight, Dif with Control",1x (80 g ai/ha),2.5 % of untreated plots
same,"biomass accumulation, Dif with Control",2x (160 g ai/ha),5.1 % of untreated plots
same,"plant height, Dif with Control",2x (160 g ai/ha),2.7 % of untreated plots
same,"root dry weight, Dif with Control",2x (160 g ai/ha),5.9 % of untreated plots
same,"biomass accumulation, Dif with Control",3x (240 g ai/ha),7.2 % of untreated plots
same,"plant height, Dif with Control",3x (240 g ai/ha),4.4 % of untreated plots
same,"root dry weight, Dif with Control",3x (240 g ai/ha),10.6 % of untreated plots
same,"biomass accumulation, Dif with Control",4x (320 g ai/ha),12.2 % of untreated plots
same,"plant height, Dif with Control",4x (320 g ai/ha),6.3 % of untreated plots
same,"root dry weight, Dif with Control",4x (320 g ai/ha),18.6 % of untreated plots
same,"biomass accumulation, Dif with Control",5x (400 g ai/ha),20.7 % of untreated plots
same,"plant height, Dif with Control",5x (400 g ai/ha),10.2 % of untreated plots
same,"root dry weight, Dif with Control",5x (400 g ai/ha),21.3 % of untreated plots
same,"plant height, Dif with Control",6x (480 g ai/ha),15.8 % of untreated plots
same,"root dry weight, Dif with Control",6x (480 g ai/ha),38.3 % of untreated plots
same,"biomass accumulation, Dif with Control","6x (480 g ai/ha), listed as imazapir",25 % of untreated plots and 25.4 % of untreated plots
same,"Phytotoxicity Index, Dif A205V-A122T",0.5x (40 g ai/ha),−0.29
same,"Phytotoxicity Index, Dif A205V-A122T",1x (80 g ai/ha),−0.29
same,"Phytotoxicity Index, Dif A205V-A122T",2x (160 g ai/ha),1.87
same,"Phytotoxicity Index, Dif A205V-A122T",3x (240 g ai/ha),4.81
same,"Phytotoxicity Index, Dif A205V-A122T",4x (320 g ai/ha),6.92
same,"Phytotoxicity Index, Dif A205V-A122T",5x (400 g ai/ha),7.38
same,"Phytotoxicity Index, Dif A205V-A122T",6x (480 g ai/ha),7.03
same,"biomass accumulation, Mean",0.5x (40 g ai/ha),98.9 % of untreated plots
same,"plant height, Mean",0.5x (40 g ai/ha),99.4 % of untreated plots
same,"root dry weight, Mean",0.5x (40 g ai/ha),99.9 % of untreated plots
same,"biomass accumulation, Mean",1x (80 g ai/ha),96.8 % of untreated plots
same,"plant height, Mean",1x (80 g ai/ha),98.6 % of untreated plots
same,"root dry weight, Mean",1x (80 g ai/ha),97.5 % of untreated plots
same,"biomass accumulation, Mean",2x (160 g ai/ha),94.9 % of untreated plots
same,"plant height, Mean",2x (160 g ai/ha),97.3 % of untreated plots
same,"root dry weight, Mean",2x (160 g ai/ha),94.1 % of untreated plots
same,"biomass accumulation, Mean",3x (240 g ai/ha),92.8 % of untreated plots
same,"plant height, Mean",3x (240 g ai/ha),95.6 % of untreated plots
same,"root dry weight, Mean",3x (240 g ai/ha),89.4 % of untreated plots
same,"biomass accumulation, Mean",4x (320 g ai/ha),87.8 % of untreated plots
same,"plant height, Mean",4x (320 g ai/ha),93.7 % of untreated plots
same,"root dry weight, Mean",4x (320 g ai/ha),81.4 % of untreated plots
same,"biomass accumulation, Mean",5x (400 g ai/ha),79.3 % of untreated plots
same,"plant height, Mean",5x (400 g ai/ha),89.8 % of untreated plots
same,"root dry weight, Mean",5x (400 g ai/ha),78.7 % of untreated plots
same,"biomass accumulation, Mean",6x (480 g ai/ha),74.6 % of untreated plots
same,"plant height, Mean",6x (480 g ai/ha),84.2 % of untreated plots
same,"root dry weight, Mean",6x (480 g ai/ha),61.7 % of untreated plots
same,"Phytotoxicity Index, Mean",0.5x (40 g ai/ha),0.3
same,"Phytotoxicity Index, Mean",1x (80 g ai/ha),0.3
same,"Phytotoxicity Index, Mean",2x (160 g ai/ha),0.3
same,"Phytotoxicity Index, Mean",3x (240 g ai/ha),0.3
same,"Phytotoxicity Index, Mean",4x (320 g ai/ha),0.5
same,"Phytotoxicity Index, Mean",5x (400 g ai/ha),0.8
same,"Phytotoxicity Index, Mean",6x (480 g ai/ha),1.2
